# Measurements as given in US10485235B2, “Aryloxypyrimidinyl ethers as herbicides” (FMC Corporation, priority 2015, dated 2019).
# Experiments:
# Format in all cases: in vivo
# [1] = test system: barnyardgrass (Echinochloa crus-galli); assay: Test A preemergence, barnyardgrass; conditions: Preemergence, 0 to 100 scale (0 no effect, 100 complete control)
# Description: (§1) Seeds of plant species selected from barnyardgrass (Echinochloa crus-galli), kochia (Kochia scoparia), ragweed (common ragweed, Ambrosia elatior), ryegrass, Italian (Italian ryegrass, Lolium multiflorum), foxtail, giant (giant foxtail, Setaria faberii), and pigweed (Amaranthus retroflexus), were planted into a blend of loam soil and sand and treated preemergence with a directed soil spray using test chemicals formulated in a non-phytotoxic solvent mixture which included a surfactant.
# (§2) At the same time, plants selected from these weed species and also wheat (Triticum aestivum), corn (Zea mays), blackgrass (Alopecurus myosuroides), and galium (catchweed bedstraw, Galium aparine), were planted in pots containing the same blend of loam soil and sand and treated with postemergence applications of test chemicals formulated in the same manner. Plants ranged in height from 2 to 10 cm and were in the one- to two-leaf stage for the postemergence treatment. Treated plants and untreated controls were maintained in a greenhouse for approximately 10 days, after which time all treated plants were compared to untreated controls and visually evaluated for injury. Plant response ratings, summarized in Table A, are based on a 0 to 100 scale where 0 is no effect and 100 is complete control. A dash (—) response means no test result.
# kochia (Kochia scoparia) [2] = assay: Test A preemergence, kochia; conditions: Preemergence, 0 to 100 scale (0 no effect, 100 complete control)
# Description: as §1, §2
# [3] = test system: ragweed (common ragweed, Ambrosia elatior); assay: Test A preemergence, ragweed; conditions: Preemergence, 0 to 100 scale (0 no effect, 100 complete control)
# Description: as §1, §2
# [4] = test system: ryegrass, Italian (Italian ryegrass, Lolium multiflorum); assay: Test A preemergence, Italian ryegrass; conditions: Preemergence, 0 to 100 scale (0 no effect, 100 complete control)
# Description: as §1, §2
# [5] = test system: foxtail, giant (giant foxtail, Setaria faberii); assay: Test A preemergence, giant foxtail; conditions: Preemergence, 0 to 100 scale (0 no effect, 100 complete control)
# Description: as §1, §2
# [6] = test system: pigweed (Amaranthus retroflexus); assay: Test A preemergence, pigweed; conditions: Preemergence, 0 to 100 scale (0 no effect, 100 complete control)
# Description: as §1, §2
# [7] = test system: barnyardgrass (Echinochloa crus-galli); assay: Test A postemergence, barnyardgrass; conditions: postemergence, 0 to 100 scale, 0 is no effect, 100 is complete control, approximately 10 days
# Description: as §1, §2
# kochia (Kochia scoparia) [8] = assay: Test A postemergence, kochia; conditions: postemergence, 0 to 100 scale, 0 is no effect, 100 is complete control, approximately 10 days
# Description: as §1, §2
# [9] = test system: ragweed (common ragweed, Ambrosia elatior); assay: Test A postemergence, ragweed; conditions: postemergence, 0 to 100 scale, 0 is no effect, 100 is complete control, approximately 10 days
# Description: as §1, §2
# [10] = test system: ryegrass, Italian (Italian ryegrass, Lolium multiflorum); assay: Test A postemergence, Italian ryegrass; conditions: postemergence, 0 to 100 scale, 0 is no effect, 100 is complete control, approximately 10 days
# Description: as §1, §2
# [11] = test system: foxtail, giant (giant foxtail, Setaria faberii); assay: Test A postemergence, giant foxtail; conditions: postemergence, 0 to 100 scale, 0 is no effect, 100 is complete control, approximately 10 days
# Description: as §1, §2
# [12] = test system: pigweed (Amaranthus retroflexus); assay: Test A postemergence, pigweed; conditions: postemergence, 0 to 100 scale, 0 is no effect, 100 is complete control, approximately 10 days
# Description: as §1, §2
# [13] = test system: wheat (Triticum aestivum); assay: Test A postemergence, wheat; conditions: postemergence, 0 to 100 scale, 0 is no effect, 100 is complete control, approximately 10 days
# Description: as §1, §2
# corn (Zea mays) = assay: Test A postemergence, corn; conditions: postemergence, 0 to 100 scale, 0 is no effect, 100 is complete control, approximately 10 days
# Description: as §1, §2
# [14] = test system: blackgrass (Alopecurus myosuroides); assay: Test A postemergence, blackgrass; conditions: postemergence, 0 to 100 scale, 0 is no effect, 100 is complete control, approximately 10 days
# Description: as §1, §2
# [15] = test system: galium (catchweed bedstraw, Galium aparine); assay: Test A postemergence, galium; conditions: postemergence, 0 to 100 scale, 0 is no effect, 100 is complete control, approximately 10 days
# Description: as §1, §2
# rice (Oryza sativa) = assay: Test B flooded paddy test, rice; conditions: 250 g ai/ha, Flood; visual rating after 13 to 15 days; scale 0 to 100, 0 is no effect, 100 is complete control
# Procedure: (§3) Plant species in the flooded paddy test selected from rice (Oryza sativa), sedge, umbrella (small-flower umbrella sedge, Cyperus difformis), ducksalad (Heteranthera limosa), and barnyardgrass (Echinochloa crus-galli) were grown to the 2-leaf stage for testing. At time of treatment, test pots were flooded to 3 cm above the soil surface, treated by application of test compounds directly to the paddy water, and then maintained at that water depth for the duration of the test. Treated plants and controls were maintained in a greenhouse for 13 to 15 days, after which time all species were compared to controls and visually evaluated. Plant response ratings, summarized in Table B, are based on a scale of 0 to 100 where 0 is no effect and 100 is complete control. A dash (—) response means no test result.
# [16] = test system: sedge, umbrella (small-flower umbrella sedge, Cyperus difformis); assay: Test B flooded paddy test, umbrella sedge; conditions: 250 g ai/ha, Flood; visual rating after 13 to 15 days; scale 0 to 100, 0 is no effect, 100 is complete control
# Procedure: as §3
# [17] = test system: ducksalad (Heteranthera limosa); assay: Test B flooded paddy test, ducksalad; conditions: 250 g ai/ha, Flood; visual rating after 13 to 15 days; scale 0 to 100, 0 is no effect, 100 is complete control
# Procedure: as §3
# [18] = test system: barnyardgrass (Echinochloa crus-galli); assay: Test B flooded paddy test, barnyardgrass; conditions: 250 g ai/ha, Flood; visual rating after 13 to 15 days; scale 0 to 100, 0 is no effect, 100 is complete control
# Procedure: as §3
SMILES,"Plant response rating, Barnyardgrass ([1]; 31 g ai/ha)","Plant response rating, Barnyardgrass ([1]; 125 g ai/ha)","Plant response rating, Kochia (kochia (Kochia scoparia) [2]; 31 g ai/ha)","Plant response rating, Kochia (kochia (Kochia scoparia) [2]; 125 g ai/ha)","Plant response rating, Ragweed ([3]; 31 g ai/ha)","Plant response rating, Ragweed ([3]; 125 g ai/ha)","Plant response rating, Ryegrass, Italian ([4]; 31 g ai/ha)","Plant response rating, Ryegrass, Italian ([4]; 125 g ai/ha)","Plant response rating, Foxtail, Giant ([5]; 31 g ai/ha)","Plant response rating, Foxtail, Giant ([5]; 125 g ai/ha)","Plant response rating, Pigweed ([6]; 31 g ai/ha)","Plant response rating, Pigweed ([6]; 125 g ai/ha)","Plant response rating, Barnyardgrass ([7]; 31 g ai/ha)","Plant response rating, Barnyardgrass ([7]; 125 g ai/ha)","Plant response rating, Ragweed ([9]; 31 g ai/ha)","Plant response rating, Ragweed ([9]; 125 g ai/ha)","Plant response rating, Ryegrass, Italian ([10]; 31 g ai/ha)","Plant response rating, Ryegrass, Italian ([10]; 125 g ai/ha)","Plant response rating, Foxtail, Giant ([11]; 31 g ai/ha)","Plant response rating, Foxtail, Giant ([11]; 125 g ai/ha)",also measured
N#Cc1cccc(Oc2ncc(Cl)cn2)c1OCCCF [Compound 15],0,20,50,100,0,0,0,10,30,90,100,100,60,90,0,20,0,10,10,30,"Plant response rating, Kochia (kochia (Kochia scoparia) [8]; 31 g ai/ha): 50; Plant response rating, Kochia (kochia (Kochia scoparia) [8]; 125 g ai/ha): 80; Plant response rating, Pigweed ([12]; 31 g ai/ha): 60; Plant response rating, Pigweed ([12]; 125 g ai/ha): 70; Plant response rating, Wheat ([13]; 31 g ai/ha): 0; Plant response rating, Wheat ([13]; 125 g ai/ha): 0; Plant response rating, Corn (corn (Zea mays); 31 g ai/ha): 10; Plant response rating, Corn (corn (Zea mays); 125 g ai/ha): 10; Plant response rating, Blackgrass ([14]; 31 g ai/ha): 0; Plant response rating, Blackgrass ([14]; 125 g ai/ha): 10; Plant response rating, Galium ([15]; 31 g ai/ha): 20; Plant response rating, Galium ([15]; 125 g ai/ha): 50"
Cc1cccc(Oc2ncc(Cl)cn2)c1OC/C=C/C(F)(F)F [Compound 58],40,90,0,0,0,0,0,0,40,90,0,100,50,70,0,0,0,0,20,70,"Plant response rating, Pigweed ([12]; 31 g ai/ha): 10; Plant response rating, Pigweed ([12]; 125 g ai/ha): 30; Plant response rating, Wheat ([13]; 31 g ai/ha): 0; Plant response rating, Wheat ([13]; 125 g ai/ha): 0; Plant response rating, Corn (corn (Zea mays); 31 g ai/ha): 0; Plant response rating, Corn (corn (Zea mays); 125 g ai/ha): 10; Plant response rating, Blackgrass ([14]; 31 g ai/ha): 0; Plant response rating, Blackgrass ([14]; 125 g ai/ha): 30; Plant response rating, Galium ([15]; 31 g ai/ha): 0; Plant response rating, Galium ([15]; 125 g ai/ha): 30; Plant response rating, Rice (rice (Oryza sativa)): 15; Plant response rating, Sedge, Umbrella [16]: 100; Plant response rating, Ducksalad [17]: 100; Plant response rating, Barnyardgrass [18]: 0"
N#Cc1cccc(Oc2ncc(Cl)cn2)c1OC/C=C/Cl [Compound 7],20,100,70,100,0,0,0,10,60,100,60,100,10,90,0,10,10,50,10,90,"Plant response rating, Kochia (kochia (Kochia scoparia) [8]; 31 g ai/ha): 90; Plant response rating, Kochia (kochia (Kochia scoparia) [8]; 125 g ai/ha): 100; Plant response rating, Pigweed ([12]; 31 g ai/ha): 60; Plant response rating, Pigweed ([12]; 125 g ai/ha): 90; Plant response rating, Wheat ([13]; 31 g ai/ha): 0; Plant response rating, Wheat ([13]; 125 g ai/ha): 10; Plant response rating, Corn (corn (Zea mays); 31 g ai/ha): 10; Plant response rating, Corn (corn (Zea mays); 125 g ai/ha): 20; Plant response rating, Blackgrass ([14]; 31 g ai/ha): 10; Plant response rating, Blackgrass ([14]; 125 g ai/ha): 30; Plant response rating, Galium ([15]; 31 g ai/ha): 50; Plant response rating, Galium ([15]; 125 g ai/ha): 80"
N#Cc1cccc(Oc2ncc(F)cn2)c1OC/C=C/Cl [Compound 36],30,80,10,100,0,0,0,0,30,90,100,100,0,70,20,40,0,20,0,50,"Plant response rating, Kochia (kochia (Kochia scoparia) [8]; 31 g ai/ha): 80; Plant response rating, Kochia (kochia (Kochia scoparia) [8]; 125 g ai/ha): 90; Plant response rating, Pigweed ([12]; 31 g ai/ha): 50; Plant response rating, Pigweed ([12]; 125 g ai/ha): 50; Plant response rating, Wheat ([13]; 31 g ai/ha): 0; Plant response rating, Wheat ([13]; 125 g ai/ha): 0; Plant response rating, Corn (corn (Zea mays); 31 g ai/ha): 0; Plant response rating, Corn (corn (Zea mays); 125 g ai/ha): 20; Plant response rating, Blackgrass ([14]; 31 g ai/ha): 10; Plant response rating, Blackgrass ([14]; 125 g ai/ha): 50; Plant response rating, Galium ([15]; 31 g ai/ha): 40; Plant response rating, Galium ([15]; 125 g ai/ha): 50"
N#CCCCOc1c(C#N)cccc1Oc1ncc(F)cn1 [Compound 37],0,20,30,80,30,70,0,0,20,50,100,100,10,20,30,50,0,0,0,10,"Plant response rating, Kochia (kochia (Kochia scoparia) [8]; 31 g ai/ha): 50; Plant response rating, Kochia (kochia (Kochia scoparia) [8]; 125 g ai/ha): 80; Plant response rating, Pigweed ([12]; 31 g ai/ha): 60; Plant response rating, Pigweed ([12]; 125 g ai/ha): 70; Plant response rating, Wheat ([13]; 31 g ai/ha): 0; Plant response rating, Wheat ([13]; 125 g ai/ha): 0; Plant response rating, Corn (corn (Zea mays); 31 g ai/ha): 0; Plant response rating, Corn (corn (Zea mays); 125 g ai/ha): 20; Plant response rating, Blackgrass ([14]; 31 g ai/ha): 0; Plant response rating, Blackgrass ([14]; 125 g ai/ha): 10; Plant response rating, Galium ([15]; 31 g ai/ha): 40; Plant response rating, Galium ([15]; 125 g ai/ha): 60"
